Data on five molecules can be found in paper PMC3726668, “A Characterization of the Manduca sexta Serotonin Receptors in the Context of Olfactory Neuromodulation” (PLoS ONE, 2013).

SMILES strings stand for the structures.

For orientation: EC50 means the concentration that produces a half-maximal response.

What all share (format): cell-based
The target of one assay is T1, Ms5HT2 receptor (Manduca sexta, UniProt S4USL2).
T1 construct: gene 5HT2
As to the kind of experiment: two-electrode voltage clamp, Xenopus oocytes, endogenous calcium-dependent chloride current.

The target of assay [1] is T2, Ms5HT1B receptor (Manduca sexta, UniProt Q0GMY1).
T2 construct: gene 5HT1B
T2 sequence (Q0GMY1 1-448): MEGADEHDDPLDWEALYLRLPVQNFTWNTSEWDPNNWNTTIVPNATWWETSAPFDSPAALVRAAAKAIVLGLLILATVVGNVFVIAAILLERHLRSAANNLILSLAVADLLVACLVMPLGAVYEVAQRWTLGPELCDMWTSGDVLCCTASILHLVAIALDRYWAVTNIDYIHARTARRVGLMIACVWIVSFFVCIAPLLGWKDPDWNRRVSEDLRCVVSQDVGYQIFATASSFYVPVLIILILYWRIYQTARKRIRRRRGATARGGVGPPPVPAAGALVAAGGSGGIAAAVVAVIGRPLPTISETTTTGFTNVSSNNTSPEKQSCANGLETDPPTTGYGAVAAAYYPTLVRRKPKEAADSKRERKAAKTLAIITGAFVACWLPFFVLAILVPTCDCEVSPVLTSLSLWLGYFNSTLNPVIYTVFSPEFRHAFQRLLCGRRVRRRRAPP
Described as above.

Assay [2] has as its target T3, Ms5HT7 receptor (Manduca sexta, UniProt S4UQW2).
T3 construct: gene 5HT7; Xenopus oocytes (pBS-MXT, receptor cRNA alone)
T3 sequence (S4UQW2 38-563): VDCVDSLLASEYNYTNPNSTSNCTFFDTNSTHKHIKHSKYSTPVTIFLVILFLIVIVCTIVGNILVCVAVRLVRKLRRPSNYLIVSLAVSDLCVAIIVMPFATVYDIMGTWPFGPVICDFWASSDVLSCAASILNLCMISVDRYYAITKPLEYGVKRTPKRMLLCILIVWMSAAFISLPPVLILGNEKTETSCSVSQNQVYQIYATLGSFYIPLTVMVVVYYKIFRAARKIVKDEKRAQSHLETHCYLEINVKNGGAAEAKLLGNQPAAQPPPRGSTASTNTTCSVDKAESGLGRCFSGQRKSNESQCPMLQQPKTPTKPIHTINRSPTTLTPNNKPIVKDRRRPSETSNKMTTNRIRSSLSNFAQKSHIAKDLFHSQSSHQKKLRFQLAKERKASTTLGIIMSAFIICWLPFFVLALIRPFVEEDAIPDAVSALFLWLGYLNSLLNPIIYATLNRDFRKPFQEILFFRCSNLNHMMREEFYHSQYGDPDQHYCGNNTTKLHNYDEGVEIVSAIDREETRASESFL
The description is as above.

The target of assay [3] is T2, Ms5HT1B receptor. The assay can be described thus: two-electrode voltage clamp, Xenopus oocytes, endogenous chloride current. The note with it: for activity at 3 µM: read-out: 5HT1B receptor. An excerpt: two-electrode voltage clamp, Xenopus oocytes, endogenous chloride current on Ms5HT1B receptor
A further assay concerns the target T4, Ms5HT1A receptor (Manduca sexta, UniProt Q0GMY2).
T4 construct: gene 5HT1A; about 51 kDa
T4 sequence (Q0GMY2 1-463): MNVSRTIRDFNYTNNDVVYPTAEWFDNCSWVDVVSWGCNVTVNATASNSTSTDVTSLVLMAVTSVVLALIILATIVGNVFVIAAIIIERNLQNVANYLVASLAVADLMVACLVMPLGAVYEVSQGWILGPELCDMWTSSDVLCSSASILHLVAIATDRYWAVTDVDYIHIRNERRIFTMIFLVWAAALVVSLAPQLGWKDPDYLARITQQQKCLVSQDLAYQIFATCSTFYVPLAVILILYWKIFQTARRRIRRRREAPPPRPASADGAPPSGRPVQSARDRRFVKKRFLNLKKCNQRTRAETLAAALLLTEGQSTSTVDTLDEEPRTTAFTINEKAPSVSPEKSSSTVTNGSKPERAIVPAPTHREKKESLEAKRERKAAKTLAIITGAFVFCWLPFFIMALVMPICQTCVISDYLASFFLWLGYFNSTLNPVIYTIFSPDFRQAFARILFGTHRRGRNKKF
The assay can be described thus: two-electrode voltage clamp, Xenopus oocytes, CFTR current. The note with it: read-out: 5HT1A receptor. The text has this: two-electrode voltage clamp, Xenopus oocytes, CFTR current on Ms5HT1A receptor

For assay [4], the target named is T3, Ms5HT7 receptor. As to the kind of experiment: two-electrode voltage clamp, Xenopus oocytes, endogenous chloride current. The note with it: 3 µM; partial agonist; relative to 1 µM 5-HT. An excerpt:
two-electrode voltage clamp, Xenopus oocytes, endogenous chloride current on Ms5HT7 receptor
In general terms: In two-electrode clamp one electrode senses voltage and the other passes current.

T1 sequence (S4USL2 1-635): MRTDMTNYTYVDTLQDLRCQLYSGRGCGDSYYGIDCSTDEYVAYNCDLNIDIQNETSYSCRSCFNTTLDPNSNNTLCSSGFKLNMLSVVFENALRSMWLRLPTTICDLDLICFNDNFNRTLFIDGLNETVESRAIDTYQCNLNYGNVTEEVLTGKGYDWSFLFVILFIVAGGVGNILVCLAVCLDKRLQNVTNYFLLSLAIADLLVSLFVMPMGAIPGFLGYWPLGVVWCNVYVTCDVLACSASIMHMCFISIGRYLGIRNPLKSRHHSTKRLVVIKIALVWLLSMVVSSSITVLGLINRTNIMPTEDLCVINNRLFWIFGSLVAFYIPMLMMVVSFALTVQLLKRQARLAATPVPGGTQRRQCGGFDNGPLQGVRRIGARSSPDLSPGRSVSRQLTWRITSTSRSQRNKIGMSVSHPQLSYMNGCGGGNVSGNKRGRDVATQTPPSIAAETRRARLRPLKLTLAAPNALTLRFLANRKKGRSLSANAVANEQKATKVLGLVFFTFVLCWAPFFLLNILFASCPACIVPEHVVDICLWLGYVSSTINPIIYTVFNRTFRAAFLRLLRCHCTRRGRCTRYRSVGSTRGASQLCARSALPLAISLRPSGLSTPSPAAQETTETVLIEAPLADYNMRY

Take `NCCc1c[nH]c2ccc(O)cc12` [serotonin]: the concentration for a half-maximal effect (EC50) at Ms5HT2 receptor is 25.4 nM; at Ms5HT1B receptor [1], 57 nM; on Ms5HT7 receptor [2], 10.5 nM.

For the molecule `COc1ccccc1N1CCN(CCN(C(=O)C2CCCCC2)c2ccccn2)CC1` [WAY100635], the activity at 3 µM at Ms5HT1B receptor [3] came to 38.2 ± 3.3%; at Ms5HT1A receptor, 76.8 ± 15.8%.

`COc1ccc2[nH]cc(CCN)c2c1` [5-methoxytryptamine] returned a 5HT1B receptor on Ms5HT1B receptor [3] (agonist, relative to 1 µM 5-HT) of 7.2 ± 1.4%.

In the case of `CC[C@@H](CO)NC(=O)[C@@H]1C=C2c3cccc4c3c(cn4C)C[C@H]2N(C)C1` [methysergide], the Ms5HT7 at Ms5HT7 receptor [4] is on record as 49.5 ± 12%.

For the molecule `CSc1ccc2c(c1)C(N1CCN(C)CC1)Cc1ccccc1S2` (centres unmarked) [methiothepin], at Ms5HT1B receptor [3], the activity at 3 µM was determined as 36.4 ± 12.6%.
